According to patent publication US20150216860A1, “THERAPEUTIC AGENT FOR SYSTEMIC BONE DISEASE AND USE THEREOF” (NATIONAL UNIVERSITY CORPORATION NAGOYA INIVERSITY, priority 2013, published 2015):

Experiments:
FGF2-treated RCS cells [1] = experiment: RCS growth arrest assay (MTS); type: cell-based, rat; conditions: for cell toxicity in RCS cells: 50 μM
Method: (§1) RCS cells, which were kindly provided from Dr. Pavel Krejci (Medical Genetics Institute, Cedars-Sinai Medical Center, LA), were cultured in Dulbecco's Modified Eagle's Medium (DMEM, Invitrogen) supplemented with 10% fetal bovine serum (FBS, Thermo Scientific) (Reference 14). For the RCS growth arrest assays, ˜5×10^3 cells were seeded in 96-well culture plates (Falcon) and incubated for 48 hours in the presence of 10 μM of 1,186 FDA-approved chemical compounds (Prestwick Chemical) and 5 ng/ml of FGF2 (R&D Systems). Cell proliferation was quantified by MTS assay (Cell 96 AQueus One Solution Cell Proliferation Assay, Promega) according to the manufacturer's instructions.

FGF2-treated RCS cells [2] = experiment: Alcian blue staining of FGF2-treated RCS cells; type: cell-based, rat; conditions: 5 ng/ml FGF2, 72 hours; meclizine 10 μM or 20 μM, CNP 0.2 μM
Method: For Alcian blue staining, growing RCS cells in 12-well plates were added with 5 ng/ml FGF2 and also with either 10 μM meclizine or 0.2 μM CNP (Calbiochem). After 72 hours, cells were fixed with methanol for 30 minutes at −20° C., and stained overnight with 0.5% Alcian Blue 8 GX (Sigma) in 1 N HCl. For quantitative analyses, Alcian blue-stained cells were lysed in 200 μl of 6 M guanidine HCl for 6 hours at room temperature (Reference 28). The optical density of the extracted dye was measured at 610 nm using PowerScan 4 (DS Pharma Biomedical).

[3] = system: Mmp10, Mmp13, and Adamts1 mRNA; experiment: Real-time RT-PCR of matrix proteinases in FGF2-treated RCS cells; type: cell-based, rat; conditions: FGF2 four hours; 20 μM meclizine or 0.2 μM CNP
Method: Total RNA was isolated from FGF2-treated RCS cells in the presence of 20 μM of meclizine or 0.2 μM of CNP using Trizol. The first strand cDNA was synthesized with ReverTra Ace (Toyobo). We quantified mRNA expression of matrix proteinases (Mmp10, Mmp13, and Adamts1) using LightCycler 480 Real-Time PCR (Roche) and SYBR Green (Takara). The mRNA levels were normalized for that of Gapdh.

[4] = system: HCS-2/8 cells expressing FGFR3-K650E (TD); experiment: Growth assay of HCS-2/8 cells expressing FGFR3-K650E; type: cell-based, human; conditions: for integrated intensities of Venus signals: K650E-expressing HCS-2/8, 72 hours
Source text: (§2) The pRK7-FGFR3-WT, -K650E, and -K650M vectors expressing wild-type and mutant FGFR3 (Reference 29) were kindly provided by Dr. Pavel Krejci (Medical Genetics Institute, Cedars-Sinai Medical Center, LA). The pRK7-FGFR3-G380R was constructed by the QuikChange site-directed mutagenesis kit (Stratagene). The wild-type and mutant FGFR3 cDNAs were excised from pRK7-FGFR3 vectors by double digestion with HindIII and BamHI. The fragments were cloned into the lentivirus vector, CSII-CMV-MCS-IRES2-Venus using the NheI and BamHI sites. CSII-CMV-MCS-IRES2-Venus was kindly provided by Dr. Hiroyuki Miyoshi (Riken BioResource Center, Tsukuba, Japan.). The HindIII site of the insert and the NheI site of the vector were blunted using Quick Blunting Kit (New England Biolabs) before ligation. HEK293 cells were plated in 150-mm dishes the day before transfection. We introduced the pLP1, pLP2, pLP/VSVG plasmids (ViraPower Packaging Mix, Invitrogen), and the CSII-CMV-MCS-IRES2-Venus vector into HEK293 cells with Lipofectamine 2000 (Invitrogen) according to the manufacturer's protocols. At 48 hours after transfection, we filtered the media containing the virus particles using the Millex-HV 0.45 μm PVDF filters (Millex) and purified lentivirus using two steps of ultracentrifugation (Beckman Coulter). The lentivirus was added to the medium of HCS-2/8 or ATDC5 cells. After 48 hours, we confirmed that more than 90% of cells were positive for Venus signals.
HCS-2/8 (Reference 31) cells were seeded in 96-well tissue culture plates. HCS-2/8 cells were then infected with lentivirus expressing either FGFR3-WT, -K650E, or -K650M. After 48 hours, the numbers of cells were estimated by MTS assay. In addition, ˜1×10^5 HCS-2/8 cells in a 12-well tissue plate were introduced with lentivirus expressing FGFR3-K650E. After 72 hours, the fluorescence intensity of the Venus protein was quantified by the ArrayScan VTI HCS Reader (Thermo Scientific).

[5] = system: HCS-2/8 cells expressing FGFR3-K650M (SADDAN); experiment: Growth assay of HCS-2/8 cells expressing FGFR3-K650M; type: cell-based, human; conditions: 20 μM
Source text: as §2, with “At 48 hours after transfection, we filtered the media containing the virus particles using the Millex-HV 0.45 μm PVDF filters (Millex) and purified lentivirus using two steps of ultracentrifugation (Beckman Coulter). The lentivirus was added to the medium of HCS-2/8 or ATDC5 cells. After 48 hours, we confirmed that more than 90% of cells were positive for Venus signals.” left out
HCS-2/8 (Reference 31) cells were seeded in 96-well tissue culture plates. […] After 72 hours, the fluorescence intensity of the Venus protein was quantified by the ArrayScan VTI HCS Reader (Thermo Scientific).

[6] = system: ATDC5 cells expressing FGFR3-G380R (ACH); experiment: Micromass culture of ATDC5 cells expressing FGFR3-G380R; type: cell-based, mouse; conditions: six days, 20 μM meclizine
embryonic tibiae = experiment: Bone explant culture of embryonic tibiae; set-up: species or system mouse; conditions: for longitudinal length of embryonic tibiae with FGF2: FGF2 100 ng/ml, day 6, meclizine 20 μM, CNP 0.2 μM
Method: For bone explant culture, tibiae were dissected under the microscope from wild-type mouse embryos on E16.5, placed in 96-well plates, and cultured in α-minimal essential medium (Invitrogen) supplemented with 0.2% bovine serum albumin, 1 mM β-glycerophosphate, and 50 μg/ml ascorbic acid. Embryonic tibiae were further treated with 100 ng/ml FGF2 in the presence or absence of 20 μM meclizine or 0.2 μM CNP for 6 days, then fixed in 10% formaldehyde in phosphate-buffered saline, demineralized with 0.5 M EDTA, and embedded in paraffin. Sections were stained with hematoxylin-eosin and Alcian blue. Images were taken with the SZ61 microscope (Olympus) equipped with the XZ-1 digital camera (Olympus). The longitudinal length of bone, which was defined as the length between proximal and distal articular cartilage, was measured using ImageJ (NIH).

ERK1/2 phosphorylation = experiment: Western blotting of ERK phosphorylation in FGF2-treated RCS cells; type: cell-based, rat; conditions: 20 μM pretreatment 30 min, 5 ng/ml FGF2 5 min
Method: (§3) RCS cells were treated with 20 μM meclizine for 30 min before adding 5 ng/ml FGF2 (“Vehicle” is no treatment group). After 5 min, cells were lysed in the ice-cold RIPA Lysis Buffer (Santa Cruz) supplemented with proteinase inhibitors. Whole cell lysates were separated on SDS-PAGE and transferred to a nitrocellulose membrane. The phosphorylation levels of molecules in the MAPK pathway were determined by Western blotting using the following antibodies: ERK1/2, phospho-ERK1/2(Thr^202/Tyr^204), MEK1/2, and phospho-MEK1/2(Ser^217/221) (Cell Signaling).

MEK1/2 phosphorylation = experiment: Western blotting of MEK phosphorylation in FGF2-treated RCS cells; type: cell-based, rat; conditions: 20 μM pretreatment 30 min, 5 ng/ml FGF2 5 min
Method: as §3

[7] = system: RCS cells expressing caERK; experiment: MTS growth assay of RCS cells expressing constitutively active ERK; type: cell-based, rat
Method: as §1
(§4) Clones that express constitutively active mutants in the MAPK/ERK pathway, pcDNA4Myc-ERK2(PD), pcDNA3HA-MEK1(DD), and pcDNA3Flag-C-rafΔN (Reference 30), were kindly provided by Dr. Mutsuhiro Takekawa (Medical Science Institute, Tokyo University, Japan). The inserts were digested with BamHI and XhoI, and were cloned into the CSII-CMV-MCS-IRES2-Venus at the BamHI sites after blunting all digested ends. Lentivirus particles were generated as described above and were applied to RCS cells.

[8] = system: RCS cells expressing caMEK; experiment: MTS growth assay of RCS cells expressing constitutively active MEK; type: cell-based, rat
Method: as §1, §4

[9] = system: RCS cells expressing caRAF; experiment: MTS growth assay of RCS cells expressing constitutively active RAF; type: cell-based, rat
Method: as §1, §4

normal mouse [10] = experiment: Internal administration to normal pregnant mouse, neonatal mouse evaluated; type: in vivo; conditions: in feed to pregnant mouse from day 14 of pregnancy, day 5 after birth
Method: (§5) Meclizine was internally administered to a normal pregnant mouse from day 14 of pregnancy (2 mg of meclizine is contained in 5 g of feed), and the body length and extremity length of the neonatal mouse on day 5 after birth were evaluated. On the other hand, meclizine was internally administered to a normal mouse from week 2 after birth, and the mouse was evaluated in the same manner on week 5.

normal mouse [11] = experiment: Internal administration to normal mouse from week 2 after birth; type: in vivo; conditions: administered from week 2 after birth, evaluated week 5
Method: as §5

[12] = system: ischemic injury in the brain and heart; conditions: cited from earlier work
Fgfr3^ach mice = conditions: continuous intravenous infusion; cited from earlier work
[13] = in vivo; cited from earlier work
FGFR3 signaling = conditions: cited from earlier work
Fgfr3^Y367C/+ mice = conditions: subcutaneous administration; cited from earlier work

## Cc1cccc(CN2CCN(C(c3ccccc3)c3ccc(Cl)cc3)CC2)c1 (stereo not shown) [meclizine, 1-[(4-chlorophenyl)phenylmethyl]-4-[(3-methylphenyl)methyl]piperazine]
FGF2-treated RCS cells [1]; 0, 1, 2, 5, 10, 20, and 50 μM, 5 ng/ml FGF2, 48 hours, MTS assay
  RCS proliferation, concentration dependence: dose-dependent increases
FGF2-treated RCS cells [1]; 10 μM compound, 5 ng/ml FGF2, 48 hours, MTS assay
  increase in RCS proliferation: ≥ 1.4 fold
FGF2-treated RCS cells [1]
  cell toxicity in RCS cells: cell toxicity was evident
FGF2-treated RCS cells [1]; listed as Meclizine
  cell toxicity in RCS cells: slight toxicity
FGF2-treated RCS cells [2]
  Alcian blue staining and chondrocyte-like cell shape: restored
[3]
  expressions of Mmp10, Mmp13, and Adamts1: significantly suppressed
[4]; 20 μM
  cellular toxicity in K650E-expressing HCS-2/8: without apparent cellular toxicity
[4]; 20 μM, 48 hours, MTS assay
  growth arrest of K650E-expressing HCS-2/8: partially but significantly rescued the growth arrest
[4]
  integrated intensities of Venus signals: significantly increased
[5]
  cellular toxicity in K650M-expressing HCS-2/8: without apparent cellular toxicity
[5]; 48 hours, MTS assay
  growth arrest of K650M-expressing HCS-2/8: partially but significantly rescued the growth arrest
[6]
  levels of glycosaminoglycans (Alcian blue, 610 nm absorbance): significantly increased the levels of glycosaminoglycans
Embryonic tibiae
  longitudinal length of embryonic tibiae with FGF2: significantly attenuated FGF2-mediated growth inhibition
Embryonic tibiae; without FGF2, day 6, 20 μM
  length of tibia without FGF2 treatment: increased the length of tibia
ERK1/2 phosphorylation
  FGF2-mediated ERK1/2 phosphorylation: attenuated
MEK1/2 phosphorylation
  MEK1/2 phosphorylation: remained unchanged
[7]
  caERK-mediated growth inhibition: had no effect
[8]
  caMEK-mediated growth inhibition: rescued
[9]
  caRAF-mediated growth inhibition: rescued
Normal mouse [10]
  body length of neonatal mouse: increase
  length of superior and inferior limbs of neonatal mouse: increase
Normal mouse [11]
  body length: increase
  tail length: increase
[12]
  cytoprotective activity against ischemic injury: cytoprotective activities

## CNP: C-type natriuretic peptide, potent antagonist of FGFR3 signaling, used as positive control
FGF2-treated RCS cells [2]
  Alcian blue staining and chondrocyte-like cell shape: approximated that of FGF2-negative cells
[3]
  expressions of Mmp10, Mmp13, and Adamts1: significantly suppressed
[4]
  integrated intensities of Venus signals: increased the integrated Venus signal intensities
[6]
  levels of glycosaminoglycans (Alcian blue, 610 nm absorbance): increased the Alcian blue staining
Embryonic tibiae
  longitudinal length of embryonic tibiae with FGF2: significantly attenuated FGF2-mediated growth inhibition
Fgfr3^ach mice
  dwarfism of Fgfr3^ach mice: successfully normalized the dwarfism
[13]
  half-life: very short

## O=C(Nc1cc(C(=O)Nc2ccc(S(=O)(=O)O)cc2S(=O)(=O)O)cc(C(=O)Nc2ccc(S(=O)(=O)O)cc2S(=O)(=O)O)c1)Nc1cc(C(=O)Nc2ccc(S(=O)(=O)O)cc2S(=O)(=O)O)cc(C(=O)Nc2ccc(S(=O)(=O)O)cc2S(=O)(=O)O)c1 [NF449]
FGFR3 signaling
  FGFR3 signaling in RCS chondrocytes: inhibits FGFR3 signaling

## BMN111: CNP analog with extended plasma half-life (PGQEHPNARKYKGANKKGLSKGCFGLKLDRIGSMSGLGC; chains of the INN, looked up)
Fgfr3^Y367C/+ mice
  bone growth in Fgfr3^Y367C/+ mice: significant recovery of bone growth
[13]
  plasma half-life: extended
